Residues, ends and D or L forms follow the SMILES beside them.
Assays:
MDA-MB-436 cells = test: Cellular adhesion assay (fibronectin, crystal violet); type: cell-based, human; conditions: 48 hours, varying doses
Experimental: (§1) Cellular adhesion assay: 96-well tissue culture plates were coated with 20 ug/mL fibronectin (Sigma) overnight at 4° C. Cells were then seeded in the plates at a density of 10,000 cells/well. Cells were treated with varying doses of CT20p for 48 hours. Plates were then shaken at 1400 rpm for 15 seconds, washed, and fixed with 10% neutral buffered formalin (Leica). Adhered cells were stained with 5 mg/mL crystal violet (Sigma) and absorbance at 595 nm was read on an EnVision plate reader (Perkin Elmer).
(§2) The effect of CT20p was examined on a panel of cell lines by measuring the impact on cellular adhesion. Metastatic cells vary their adhesion patterns as dictated by their environment (Cheung and Ewald 2014), and targeting adhesion ability could mitigate metastasis. To examine the cell lines, plates were coated with fibronectin to provide an appropriate substrate for adhesion, and cells were treated with CT20p for 48 hours at varying doses (FIG. 5A). […] Treating at this dose would allow us to observe the molecular effects of the peptide prior to cell death.

BT-549 cells = test: as above; type: cell-based, human; conditions: 48 hours, varying doses
Experimental: as §1, §2

MDA-MB-231 cells [1] = test: as above; type: cell-based, human; conditions: 48 hours, varying doses
Experimental: as §1, §2

MCF-10A cells [2] = test: as above; type: cell-based, human
Experimental: as §1, §2

CCTβ in MDA-MB-231 cells = target: T1, CCTβ in MDA-MB-231 cells (Homo sapiens, UniProt P78371); test: In-cell pull down (CT20p-biotin in HBPE-nanoparticles), blot for CCTβ; type: cell-based; conditions: whole cell lysates
T1 construct: delivered to viable MDA-MB-231 and MCF-10A cells, followed by gentle cell lysis; endogenous in cells; host or cells: MDA-MB-231
Experimental: (§3) Pull down experiments: Lysate pull-downs were performed with 200 ug cell lysate, obtained by douncing as described above. Lysates were pre-cleared with streptavidin-agarose beads (Pierce), then incubated with […] of CT20-Biotin or biotin for 3 hours at room temperature, followed by overnight incubation at 4° C. with streptavidin-agarose beads. Beads were washed thoroughly with wash buffer (25 mM Tris, 150 mM NaCl, 0.1% NP40, pH7.4), then heated in 4× loading buffer (Invitrogen) for analysis by SDS-PAGE. Mass spectrometric analysis was performed by Moffit Cancer Center (Tampa, FL). Mass spectrometry results presented are of proteins with at least two unique peptides identified, and that were not recovered with biotin-only pull down. In-cell pull downs were performed by first delivering CT20p-Biotin encapsulated in nanoparticles to viable cells at a dose of 75 μg/mL for varying lengths of time. Following treatment, cells were collected and lysed by douncing. 200 ug of cell lysate were then incubated with streptavidin-agarose beads overnight at 4° C., and pull-down was completed as described above. […]
(§4) Because pull downs performed in cell lysates may emphasize non-specific protein interactions, we designed an in-cell pull down assay to better reflect interactions in the intracellular environment. […] Indeed, no pull down was detected with DiI-loaded nanoparticles.

CCTβ in MCF-10A cells = target: T2, CCTβ in MCF-10A cells (Homo sapiens, UniProt P78371); test: as above; type: cell-based; conditions: whole cell lysates
T2 construct: delivered to viable MDA-MB-231 and MCF-10A cells, followed by gentle cell lysis; endogenous in cells; host or cells: MCF-10A (untransfected)
Experimental: as §3, §4

MDA-MB-231 cells [3] = test: Timeline of biological effects of CT20 in HBPE-NPs in breast cancer cells; type: cell-based, human; conditions: CT20 (˜3.4 nM) in HBPE-NPs
Experimental: CT20 peptide impaired mitochondrial movement (mitotracker green) (A) leading to clustering (JC-1 probe) (B) and reduced F-actin (green) polymerization (nucleus, DAPI, blue (C). Referring to FIG. 3D, the viability of cells was determined by measuring membrane permeability (Sytox) and membrane asymmetry (violet ratiometric dye). Gates are: N, necrotic; V, viable; A, apoptotic. Percentages are V (black) and N+A (red). Referring to FIG. 3E, by 6 hours, cells detach from substrate (fibronectin). Referring to FIG. 3F, membrane levels of β1 integrin decrease. Referring to FIG. 3G-3I, post-cell detachment events include caspase activation, autophagy, and increased ROS production. Referring to FIG. 3J, apoptosis/anoikis was detected between 24-48 hours as described for 3D.
(§5) This triggered hyperpolarization of the mitochondrial membrane and fusion-like aggregation (FIG. 3B) that impaired mitochondrial redistribution, ATP production, and F-actin polymerization (FIG. 3C). Cells remained viable during these “initiating events” (FIG. 3D). However, at 6 hours post-CT20 treatment, cells began detaching from the substrate (fibronectin) (FIG. 3E). This was preceded by decreased expression of integrins (β1 integrin is shown; FIG. 3F). By 24 hours post-CT20 treatment, “effector events” caused by peptide-induced detachment were detected, including the activation of caspases (FIG. 3G), the induction of autophagy (FIG. 3H), and increased ROS production (FIG. 3I). Cell death (anoikis), indicated by membrane asymmetry, was detected in cancer cells by 48 hours (FIG. 3J).

[4] = test system: cells isolated from primary breast tumors; test: Lethality in cells isolated from primary breast tumors; type: cell-based, human; conditions: CT20 peptide in HBPE-NPs
Text: 40× magnification. CCTβ was detected in invasive breast cancer.
The lethality of CT20 was also examined in cells isolated from primary breast tumors and paired normal tissue. […] To this end, the levels of CCTβ were examined in a pilot tissue array of breast cancer tissue cores by immunohistochemistry (IHC) and detected CCTβ in invasive breast cancer (FIG. 14B).

MCF-10A cells [5] = test: Biological effects of CT20 in HBPE-NPs in normal control epithelial cells; type: cell-based, human; conditions: CT20 (˜3.4 nM) in HBPE-NPs
Experimental: as §5

## CC[C@H](C)[C@H](NC(=O)[C@@H](NC(=O)[C@H](CC(C)C)NC(=O)[C@H](CO)NC(=O)[C@H](C)NC(=O)[C@@H](NC(=O)[C@H](CC(C)C)NC(=O)[C@@H](NC(=O)CNC(=O)[C@H](C)NC(=O)[C@@H](NC(=O)[C@H](Cc1ccccc1)NC(=O)[C@@H](NC(=O)[C@@H](NC(=O)[C@@H](NC(C)=O)C(C)C)[C@@H](C)O)[C@@H](C)CC)C(C)C)C(C)C)[C@@H](C)O)[C@@H](C)O)C(=O)N[C@@H](Cc1c[nH]c2ccccc12)C(=O)N[C@@H](CCCCN)C(=O)N[C@@H](CCCCN)C(=O)N[C@@H](CCSC)C(=O)NCC(N)=O [CT20] (Ac-VTIFVAGVLTASLTIWKKMG-NH2)
MDA-MB-436 cells
  Effect on cellular adhesion: dose-dependent loss of adhesion
BT-549 cells
  Effect on cellular adhesion: particularly unaffected
MDA-MB-231 cells [1]
  Effect on cellular adhesion: dose-dependent loss of adhesion
MCF-10A cells [2]; 75 μg/mL of CT20p
  Detachment of cells: does not cause detachment
MCF-10A cells [2]; 48 hours, varying doses, fibronectin
  Effect on cellular adhesion: particularly unaffected
CCTβ in MDA-MB-231 cells
  Effect on total CCTβ protein levels: does not affect
CCTβ in MCF-10A cells
  Effect on total CCTβ protein levels: does not affect
MDA-MB-231 cells [3]
  Movement of mitochondria compared to controls: decreased four-fold
  Time by which cell death (anoikis, membrane asymmetry) was detected: ≤ 48 h
MDA-MB-231 cells [3]; post-CT20 treatment
  Time at which cells began detaching from the substrate (fibronectin): 6 h
  Time by which effector events (caspase activation, autophagy, increased ROS) were detected: ≤ 24 h
[4]
  Lethality: killed the tumor cells
MCF-10A cells [5]
  Cytoskeletal impairment and cell death in control epithelial cell line: not observed
MCF-10A cells [5]; listed as CT20 peptide
  Cytoskeletal impairment and cell death in control epithelial cell line: minimal cell death

Reference: patent US12178840B2, “Method and compositions comprising a CT20 peptide” (UNIVERSITY OF CENTRAL FLORIDA RESEARCH FOUNDATION, INC., priority 2014, dated 2024)
